The values below come from patent US6294650A, “Inhibition of mammalian telomerase by peptide nucleic acids” (The Board of Regents, University of Texas System, priority 1999, dated 2001).

Data set [1] has as its system human telomerase. Briefly: TRAP assay of telomerase activity in HME50-5 cell extracts preincubated with PNA or PS oligomer. Type of data set: biochemical. As to the method:
Cells were derived from a human immortal primary breast epithelial cell line (HME50-5) that expresses telomerase at high levels. Cell extracts were obtained by resuspending a 100,000 cell pellet into 200 μl of lysis buffer (0.5% 3-[3-cholamidopropyl-dimethylammonio]-1-propane-sulfonate (CHAPS), 10 mM Tris-HCl, pH 7.5, 1 mM ethylenebis(oxyethylene-nitrilo)tetraacetic acid (EGTA), 5 mM β-mercaptoethanol, 0.1 mM 4-(2-aminoethyl)benzenesulfonyl fluoride (AEBSF), 10% glycerol). The suspension was mixed by pipetting at least three times and kept on ice for 30 minutes. The lysate was centrifuged at 16,000×g for 20 minutes at 4° C., and 160 μl of the supernatant was collected. The cells were then diluted 10-fold to obtain a 50 cell equivalent/μl stock suspension, aliquoted, frozen in liquid nitrogen, and stored at -80° C. These aliquots were utilized throughout our experiments to ensure consistency.
The tubes were transferred to a PCR thermocycler set at 94° C. for 3 minutes to melt the wax barrier, cycled 30 times (30 seconds at 95° C., 30 seconds at 55° C. and 30 seconds at 72° C.) followed by a 3 minute extension at 72° C. The samples were frozen at -80° C. and the wax barrier removed. […] Gels were fixed for 30 minutes (1:1 ethanol: water, 0.5 M NaCl, 40 mM NaOAc, pH 4.2) then exposed to a phosphorimager screen for quantitation. […] Data was processed using ImageQuant software version 3.3.
Varied concentrations of PNA were added to cell extracts containing the TS primer. Telomerase products were visualized by gel electrophoresis and the extent of inhibition was quantified by phosphorimager analysis by evaluating each lane of the gels separately. The lanes were further separated into two areas for evaluation; one for the internal amplification standard (ITAS) and the other for all telomerase products. […] This ratio was taken to indicate telomerase activity with the ratio of the positive control being assigned 100% activity. The extent of inhibition as a function of the concentration of the added PNA was plotted and these graphs were utilized to derive the IC50.
Telomerase activity was measured using the telomeric repeat amplification protocol (TRAP). Rather than measure the change in chromosome length over time, a process that requires weeks to produce definitive results and measures telomerase activity only indirectly, the TRAP assay measures the elongation of a short oligonucleotide primer (TS primer) known to act as an efficient substrate of telomerase. Cell extracts from a human immortal breast epithelial cell line, HME50-5, expressing telomerase were preincubated with PNAs to allow recognition of complementary sequences by Watson-Crick base-pairing. The TS primer was then added to initiate chain elongation by telomerase. Following elongation of the TS primer, the mixture was transferred to a thermocycler and polymerase chain reaction (PCR) was performed to amplify the products. Two potential template DNAs were present, and amplification products were primed from either an internal amplification standard (ITAS) or from the product of telomerase elongation of the TS primer. These amplification products were separated by gel electrophoresis and quantitated separately. A ratio of the amount of amplified products of telomerase activity to that derived from amplification of the ITAS standard was determined and compared to a positive control to which no PNA was added. This comparison allowed calculation of the inhibition of telomerase activity due to a given concentration of PNA.

The subject of data set [2] is human telomerase. Briefly: TRAP assay of telomerase activity in permeabilized HME50-5 cells. The format is cell-based. The conditions noted are these: 37° C., read-out: IC50 (nM) Perm. Cells 37° C. The method, then:
To examine the ability of PNAs to inhibit telomerase activity within permeabilized cells HME50-5 cells were treated with a buffered solution containing a relatively low concentration of detergent (20 mM Tris-HCl, pH 8.3, 1.5 mM MgCl2, 68 mM KCl, 0.5% Tween 20, 1 mM EGTA, 5.0% glycerol, and 0.1 mM AEBSF). The telomerase activity in these cells was not further purified, and permeabilized cells were incubated with PNA and PS oligomers prior to assay for telomerase activity.
A further control experiment was performed to ensure that the observed. inhibition was due to PNA entry into permeabilized cells The TRAP assay was utilized to compare the level of telomerase activity retained inside permeabilized cells to activity which leaks into solution. This control was necessary to ensure that the observed inhibition was due to PNA inhibition of telomerase within cells. Permeabilized cells were centrifuged and the cell pellet and the cell-free supernatant were separately examined for telomere activity using the TRAP assay. Greater than 80% of telomerase activity remained associated with the cell pellet after this mild treatment, confirming that telomerase is largely retained inside permeabilized cells.
Telomerase activity was determined using the telomere repeat amplification protocol (TRAP) assay essentially as described (Piatyszek et al. (1995) Methods in Cell Science 17: 1) with the modification that the cellular extract was preincubated at 25° C. for 30 minutes with the PNA at the concentrations indicated. Following preincubation 3 μl of the cellular extract plus PNA was added to a PCR tube containing 46 μl of reaction buffer (20 mM Tris-HCl, pH 8.3, 1.5 MM MgCl2, 68 MM KCl, 0.05% Tween-20, 1 mM EGTA), 50 μM dNTPs, 0.1 μg TS primer (5'-[…]-3' (SEQ ID NO:23)), 5 attg ITAS template (25), 0.5 μM T4 gene 32 protein, 2 Units Taq polymerase, 4 μCi^32 P-α dCTP) above a wax barrier separating 0.1 μg of the CX, reverse primer (5'-[…]-3' (SEQ ID NO:24)), and incubated for 30 minutes to allow telomerase to elongate the TS primer. The tubes were transferred to a PCR thermocycler set at 94° C. for 3 minutes to melt the wax barrier, cycled 30 times (30 seconds at 95° C., 30 seconds at 55° C. and 30 seconds at 72° C.) followed by a 3 minute extension at 72° C. The samples were frozen at -80° C. and the wax barrier removed. The solution containing the PCR products (40 μl) was added to 3.3 μl of loading buffer and 20 μl was loaded onto a 10% non-denaturing polyacrylamide gel and separated by electrophoresis at 180 volts for 45 minutes followed by 280 volts for 1 hour and 45 minutes. Gels were fixed for 30 minutes (1:1 ethanol: water, 0.5 M NaCl, 40 mM NaOAc, pH 4.2) then exposed to a phosphorimager screen for quantitation. Phosphorimager analysis was performed utilizing a Molecular Dynamics model 425F phosphorimager. Data was processed using ImageQuant software version 3.3.
Varied concentrations of PNA were added to cell extracts containing the TS primer. Telomerase products were visualized by gel electrophoresis and the extent of inhibition was quantified by phosphorimager analysis by evaluating each lane of the gels separately. The lanes were further separated into two areas for evaluation; one for the internal amplification standard (ITAS) and the other for all telomerase products. A ratio of telomerase products to ITAS was determined and compared to a positive control in which no PNA had been added. This ratio was taken to indicate telomerase activity with the ratio of the positive control being assigned 100% activity. The extent of inhibition as a function of the concentration of the added PNA was plotted and these graphs were utilized to derive the IC50.
The potential for such interactions to interfere with the location of hTR by PNAs was evaluated by examining elongation under conditions more similar to those in vivo. PNAs were applied to HME50-5 cells that had been mildly permeabilized. […]

The mark [3] stands for this setting: HME50-5 cell extract, 25° C., 30 min preincubation, read-out: IC50 (nM) Cell Extract 25° C.
Where [4] appears, read: HME50-5 cell extract, 37° C., read-out: IC50 (nM) Cell Extract 37° C.

For “PNA (III): complementary PNA, sequence TTAGGGTTAG (all peptide nucleic acid (PNA))”, the half-maximal inhibitory concentration (IC50) in data set [1] (setting [3]) came to 200 nM; in data set [1] (setting [4]) it was 400 nM; in data set [1] (cell extract, 30 min preincubation, read-out: IC50 for inhibition of telomerase), 200 nM; in data set [2] it was 500 nM.

With “PNA (IV): complementary PNA, sequence GTTAGGGTTAG (all peptide nucleic acid (PNA))”, in data set [2], the 50% inhibitory concentration (IC50) amounted to 300 nM.

“PNA (IX): complementary PNA, sequence TAGGGTTAGAC (all peptide nucleic acid (PNA))”: the IC50 was ~10 nM in data set [1] (HME50-5 cell extract, 25° C., 30 min preincubation, listed as PNA IX, read-out: IC50 (nM) Cell Extract 25° C.) and 10 nM in data set [1] (setting [3]).

For “PNA (V): complementary PNA, sequence AGTTAGGGTTAG (all peptide nucleic acid (PNA))”, the results for the IC50 in data set [1] (setting [3]), in data set [1] (setting [4]) and in data set [2] were 10 nM, 75 nM and 370 nM, respectively.

As for “PNA (VI): complementary PNA, sequence CAGTTAGGGTTAG (all peptide nucleic acid (PNA))”, the values for the IC50 in data set [1] (setting [3]), in data set [1] (setting [4]) and in data set [2] were 10 nM, 50 nM and 75 nM, respectively.

Take “PNA (VII): complementary PNA, sequence CTCAGTTAGGGTTAG (all peptide nucleic acid (PNA))”: the half-maximal inhibitory concentration (IC50) in data set [1] (setting [4]) stood at 70 nM.

Take “PNA (VIII): complementary PNA, sequence CCCTTCTCAGTTAGGGTTAG (all peptide nucleic acid (PNA))”: the results for the IC50 in data set [1] (setting [3]), in data set [1] (setting [4]) and in data set [2] were 200 nM, 300 nM and 400 nM, respectively.

On to “PNA (X): complementary PNA, sequence GTTAGGGTTAGAC (antisense; all peptide nucleic acid (PNA))”, for which the concentration for half-maximal inhibition (IC50) in data set [1] (HME50-5 cell extract, 25° C., 30 min preincubation, listed as PNA X, read-out: IC50 (nM) Cell Extract 25° C.) is ~10 nM; in data set [1] (setting [3]), 10 nM.

For “PNA (XI): complementary PNA, sequence GGGTTAGACAA (all peptide nucleic acid (PNA))”, the half-inhibitory concentration (IC50) was ~10 nM in data set [1] (HME50-5 cell extract, 25° C., 30 min preincubation, listed as PNA XI, read-out: IC50 (nM) Cell Extract 25° C.); 10 nM in data set [1] (setting [3]); 50 nM in data set [1] (setting [4]); 70 nM in data set [2].

On to “PNA (XII): complementary PNA, sequence TAGGGTTAGACAA (all peptide nucleic acid (PNA))”, for which the “preincubation time to reach maximal inhibition” value in data set [1] (300 pM PNA) is “ninety”; in data set [1] (200 nM PNA), “five”. For the same substance, the IC50 in data set [1] (setting [3]) amounted to 0.9 nM. In addition, in data set [1] (lengthy incubation with primer and nucleotides), the “reversibility of inhibition once maximal inhibition attained” value is recorded as “effectively irreversible”.

For “PNA (XIII): complementary PNA, sequence GTTAGGGTTAGACAA (all peptide nucleic acid (PNA))”, the IC50 in data set [1] (setting [4]) worked out at 50 nM.

In the case of “PNA (XIV): non-complementary PNA, sequence AGGATCTTCACCTAGATCCT (all peptide nucleic acid (PNA)) [reference compound]”, the IC50 in data set [1] (setting [3]) and in data set [1] (setting [4]) was > 33000 nM in each case. Also, the “inhibition of human telomerase activity (in words)” value in data set [1] (cell extract) is on record as “did not detectably inhibit”.

For the substance “PNA (XV): non-complementary PNA, sequence TGTAAGGAACTAG (all peptide nucleic acid (PNA)) [reference compound]”, the IC50 in data set [1] (setting [3]) and in data set [1] (setting [4]) was > 33000 nM each time. Further, the “inhibition of human telomerase activity (in words)” value in data set [1] (cell extract) was “did not detectably inhibit”.

On to “PS (I): complementary phosphorothioate oligonucleotide 5'-GTTAGGGTTAG-3' (all phosphorothioate, sugars by position not given here) [reference compound]”, for which the half-inhibitory concentration (IC50) in data set [1] (setting [3]) was determined as 75 nM; in data set [1] (setting [4]) it was 250 nM.

As for “PS (II): complementary phosphorothioate oligonucleotide CTCAGTTAGGGTTAG (all phosphorothioate, sugars by position and methylation of C not given here) [reference compound]”, the IC50 in data set [1] (setting [3]) turned out to be 100 nM; in data set [1] (setting [4]), 700 nM.

As for “PS (III): complementary phosphorothioate oligonucleotide TAGGGTTAGACAA (all phosphorothioate, sugars by position and methylation of C not given here) [reference compound]”, the values for the 50% inhibitory concentration (IC50) in data set [1] (setting [3]) and in data set [1] (setting [4]) were 50 nM and 200 nM, respectively.

Consider “PS (IV): non-complementary phosphorothioate oligonucleotide AGGATCTTCACCTAGATCCT (all phosphorothioate, sugars by position and methylation of C not given here) [reference compound]”, for which the half-inhibitory concentration (IC50) in data set [1] (setting [3]) was found to be 100 nM; in data set [1] (setting [4]) it was 400 nM.

For the substance “PS (V): non-complementary phosphorothioate oligonucleotide TGTAAGGAACTAG (all phosphorothioate, sugars by position and methylation of C not given here) [reference compound]”, the 50% inhibitory concentration (IC50) in data set [1] (setting [3]) was 100 nM; in data set [1] (setting [4]) it was 450 nM.

By IC50 is commonly meant the midpoint of a concentration-inhibition curve.
